In patent US20230279379A1, “METHODS AND MICROFLUIDIC DEVICE FOR PRODUCING EXTRACELLULAR VESICLES” (THE BOARD OF TRUSTEES OF THE UNIVERSITY OF ILLINOIS, priority 2022, published 2023):

System: F-actin in MSCs
Assay: dSTORM super-resolution imaging and DBSCAN clustering of F-actin
Assay type: cell-based
Details: CK869 treatment for 2 hours
Procedure: Sample Preparation for Imaging of F-Actin in Cells on Hydrogels. To prepare samples for F-actin imaging, glass bottom dishes (No 0., 35 mm; MatTek) were silanized, and a thin layer of PEG-DA hydrogel with varied elasticity was formed as described above. After cell seeding on hydrogels and culturing cells in the presence of DMSO or CK869, cells were permeabilized with 0.0015% saponin (Sigma) in a cytoskeleton buffer (10 mM MES, pH 6.0, 150 mM NaCl, 5 mM EGTA, 5 mM glucose, and 5 mM MgCl2) for 4 minutes at room temperature. The samples were then washed with the cytoskeleton buffer 3 times and fixed with 4% paraformaldehyde in the cytoskeleton buffer for 20 minutes at room temperature. […]
Super-Resolution Imaging of F-actin. […] 50,000 images were recorded for each cell in each condition; after rejecting overtly dense/bleached images approx. 30,000 images were analyzed in each cell/condition for localization detection in post-processing using ThunderSTORM (ImageJ), with the following settings in brief: wavelet filtering (B-spline order 3, scale 2); integrated Gaussian fitting (radius: 3 pixels, initial sigma: 1.6 pixels); local maximum with 8-neighborhood; camera pixel size 160 nm. […]
Nanoscale Clustering Analysis of F-actin. […] The percentage of F-actin localizations that belong to each cluster group per cell was then quantified and used for statistical analysis.

COc1ccc(N2C(=O)CSC2c2cccc(Br)c2)c(OC)c1 (stereo not shown) [CK869]
distribution of F-actin clusters: did not alter the distribution of different F-actin clusters on both substrates
